# Results as given in patent US10864198B2, “Methods of preventing cardiovascular events in residual risk dyslipidemic populations” (Kowa Company, Ltd., priority 2016, dated 2020).
# Read-outs that look alike come from different tables or passages of the source.
# Legend:
# PPARδ = target: T1, PPARδ (Homo sapiens, UniProt Q03181); details: PPAR transcriptional activity; Fruchart 2013 Table 1; cited from earlier work
# T1 sequence (Q03181 1-441): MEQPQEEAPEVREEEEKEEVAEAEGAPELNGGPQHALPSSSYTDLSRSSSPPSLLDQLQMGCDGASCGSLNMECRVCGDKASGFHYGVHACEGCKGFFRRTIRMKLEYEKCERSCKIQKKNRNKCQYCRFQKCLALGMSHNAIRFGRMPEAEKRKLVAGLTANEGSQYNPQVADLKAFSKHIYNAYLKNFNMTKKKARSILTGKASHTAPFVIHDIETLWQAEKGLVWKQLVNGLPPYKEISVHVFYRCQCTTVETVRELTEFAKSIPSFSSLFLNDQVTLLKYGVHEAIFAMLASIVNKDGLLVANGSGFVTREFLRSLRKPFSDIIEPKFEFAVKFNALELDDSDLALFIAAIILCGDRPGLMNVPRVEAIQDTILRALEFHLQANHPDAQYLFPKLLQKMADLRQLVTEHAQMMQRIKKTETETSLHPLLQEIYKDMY
# men with dyslipidemia = details: Helsinki Heart Study and VA-HIT Study; cited from earlier work
# [1] = tested on: patients on statins with residual cardiovascular risk; details: two clinical trials; cited from earlier work
# [2] = tested on: patients with type 2 diabetes mellitus with residual dyslipidemia on statin; experiment: Example 2: post-hoc analysis of type 2 diabetes patients of the Example 1 study; format: in vivo, human; details: for increase in HDL-C / BQ LDL-C increase: significant
# From the text: Overall, 161 type 2 diabetes mellitus patients were randomized and 154 patients completed treatment. […] Tables 1-4 also report the results of the analyses, and compare the results to the results obtained for the general residual dyslipidemia population studied in Example 1.
# [3] = tested on: patients with fasting high TG and non-HDL-C treated with pitavastatin; experiment: Example 3: double-blind parallel-group study, pemafibrate add-on to pitavastatin, 12 weeks; format: in vivo, human; details: for Fasting non-HDL-C reduction: with pitavastatin, placebo −5.9%; for Fasting TG reduction (percentage change from baseline): with pitavastatin 2 mg/day, P<0.001 vs placebo (−6.9%)
# From the text: The primary endpoint was the percentage change in TG from baseline and incidence of adverse drug reactions (ADRs) and adverse events (AEs).
# [4] = tested on: dyslipidemia patients on concurrent statin therapy; format: in vivo, human; details: for LDL-C levels increase vs. placebo: significant
# From the text: The results of the study are depicted in FIGS. 1A-1D.
# PPARγ = target: T2, PPARγ (Homo sapiens, UniProt P37231); details: PPAR transcriptional activity; Fruchart 2013 Table 1; cited from earlier work
# T2 sequence (P37231 1-505): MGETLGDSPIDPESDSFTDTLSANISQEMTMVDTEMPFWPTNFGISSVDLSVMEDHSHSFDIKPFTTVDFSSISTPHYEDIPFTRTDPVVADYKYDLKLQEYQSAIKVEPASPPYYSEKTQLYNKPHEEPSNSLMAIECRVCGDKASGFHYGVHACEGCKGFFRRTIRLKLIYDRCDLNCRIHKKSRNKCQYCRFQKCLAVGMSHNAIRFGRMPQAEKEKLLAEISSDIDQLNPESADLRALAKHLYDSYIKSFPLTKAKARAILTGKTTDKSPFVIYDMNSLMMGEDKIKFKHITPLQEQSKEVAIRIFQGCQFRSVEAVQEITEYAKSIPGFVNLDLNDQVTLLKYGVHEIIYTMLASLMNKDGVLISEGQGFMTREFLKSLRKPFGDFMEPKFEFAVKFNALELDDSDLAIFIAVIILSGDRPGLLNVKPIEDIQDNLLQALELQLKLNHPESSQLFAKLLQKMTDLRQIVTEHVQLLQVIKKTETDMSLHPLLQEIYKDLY
structure (smiles),measurement,setting,value
"CC(C)OC(=O)C(C)(C)Oc1ccc(C(=O)c2ccc(Cl)cc2)cc1 [Fenofibrate, reference compound]",PPARδ EC50,PPARδ,not activated
Cc1ccc(C)c(OCCCC(C)(C)C(=O)O)c1 [gemfibrozil],primary endpoint for reducing cardiovascular risk,men with dyslipidemia,met their primary endpoint
O=C(O)c1cccnc1 [niacin],prevention of cardiovascular events,[1],unable to prevent cardiovascular events
"CC[C@@H](Oc1cccc(CN(CCCOc2ccc(OC)cc2)c2nc3ccccc3o2)c1)C(=O)O [pemafibrate, Pemafibrate]",increase in HDL-C,[2]; 0.05 mg BID,11.39%
same,increase in HDL-C,[2]; 0.1 mg BID,11.94%
same,BQ LDL-C increase,[2]; 0.1 mg QD,6.7%
same,BQ LDL-C increase,[2]; 0.2 mg BID,1.8%
same,increase in HDL-C,[2]; 0.2 mg QD,9.48%
same,TG levels,[2]; across all doses,significantly reduced
same,Apo B48 levels,[2]; all doses,significantly reduced
same,Apo CIII levels,[2]; all doses,significantly reduced
same,remnant-C levels,[2]; all doses,significantly reduced
same,change in total Apo B,[2]; any dose,no significant change
same,EC50,PPARδ,1000 nM
same,fasting plasma glucose compared to placebo,"[3]; 0.4 mg/day, P=0.003",significant reductions
same,HOMA-IR compared to placebo,"[3]; 0.4 mg/day, P=0.019",significant reductions
same,very small LDL-C compared to placebo,"[3]; HPLC analysis, P<0.05",significant reduction
same,effect on total LDL-C,"[3]; add-on to pitavastatin, 12 weeks",neutral effect
same,Apo CIII compared to placebo,"[3]; all pemafibrate groups, P<0.01",reductions
same,HDL-C compared to placebo,"[3]; all pemafibrate groups, P<0.01",Significant increase
same,VLDL-C compared to placebo,"[3]; all pemafibrate groups, P<0.01",reductions
same,remnant lipoprotein cholesterol compared to placebo,"[3]; all pemafibrate groups, P<0.01",reductions
same,Fasting non-HDL-C reduction,"[3]; pemafibrate 0.1 mg, 12 weeks",−11.3%
same,Fasting TG reduction (percentage change from baseline),"[3]; pemafibrate 0.1 mg/day twice-daily, 12 weeks",−46.1%
same,Fasting non-HDL-C reduction,"[3]; pemafibrate 0.2 mg, 12 weeks",−14.1%
same,Fasting TG reduction (percentage change from baseline),"[3]; pemafibrate 0.2 mg/day twice-daily, 12 weeks",−53.4%
same,Fasting non-HDL-C reduction,"[3]; pemafibrate 0.4 mg, 12 weeks",−13.3%
same,Fasting TG reduction (percentage change from baseline),"[3]; pemafibrate 0.4 mg/day twice-daily, 12 weeks",−52.0%
same,LDL-C levels increase vs. placebo,"[4]; 0.1 mg BID, 12 weeks",22.46%
same,Non-HDL-C levels,"[4]; 0.2 mg BID, 12 weeks",significantly reduced
same,LDL-C levels increase vs. placebo,"[4]; 0.2 mg BID, 12 weeks",24.25%
same,Non-HDL-C levels,"[4]; 0.2 mg QD, 12 weeks",significantly reduced
same,LDL-C levels increase vs. placebo,"[4]; 0.4 mg QD, 12 weeks",18.74%
same,TG levels,[4]; all treatment groups after 12 weeks,significantly reduced
same,change in total Apo B,"[4]; any dose, 12 weeks",no significant change
same,"Adverse events, patients","[4]; both, human, in vivo, 12 weeks",46.4%
same,EC50,PPARγ,2300 nM
